Experimental data published in PubChem BioAssay AID1845208 (Molecular Pharmacology Branch, DTP, NCI, 2023).

Test system: NCI-H196 SCLC complex tumor spheroid viability
Test: Anticancer human tumor NCI-H196 cell line growth inhibition;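 also: spheroids exposed to compounds for 7 days before readout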;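 as to viability, T/C: 100% = DMSO vehicle control wells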
Conditions: for IC50: curve of first compound; for viability, T/C: stronger effect = lower value
Procedure, shortened: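 Complex tumor spheroids combined malignant cells with endothelial cells and mesenchymal stem cells. DNA-damaging drugs and DNA repair inhibitors were tested alone and in combination, at half-log dilutions down from clinical Cmax (top 10 microM if Cmax unknown), 0.25% DMSO final.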

[1] = second compound 0.003 µM, first compound 0.0316 µM
[2] = second compound 0.003 µM, first compound 0.1 µM
[3] = second compound 0.003 µM, first compound 0.316 µM
[4] = second compound 0.003 µM, first compound 1 µM
[5] = second compound 0.003 µM, first compound 3.16 µM
[6] = second compound 0.003 µM, first compound 10 µM
[7] = second compound 0.00949 µM, first compound 0.0316 µM
[8] = second compound 0.00949 µM, first compound 0.1 µM
[9] = second compound 0.00949 µM, first compound 0.316 µM
[10] = second compound 0.00949 µM, first compound 1 µM
[11] = second compound 0.00949 µM, first compound 3.16 µM
[12] = second compound 0.00949 µM, first compound 10 µM
[13] = second compound 0.03 µM, first compound 0.0316 µM
[14] = second compound 0.03 µM, first compound 0.1 µM
[15] = second compound 0.03 µM, first compound 0.316 µM
[16] = second compound 0.03 µM, first compound 1 µM
[17] = second compound 0.03 µM, first compound 3.16 µM
[18] = second compound 0.03 µM, first compound 10 µM
[19] = second compound 0.0949 µM, first compound 0.0316 µM
[20] = second compound 0.0949 µM, first compound 0.1 µM
[21] = second compound 0.0949 µM, first compound 0.316 µM
[22] = second compound 0.0949 µM, first compound 1 µM
[23] = second compound 0.0949 µM, first compound 3.16 µM
[24] = second compound 0.0949 µM, first compound 10 µM
[25] = second compound 0.3 µM, first compound 0.0316 µM
[26] = second compound 0.3 µM, first compound 0.1 µM
[27] = second compound 0.3 µM, first compound 0.316 µM
[28] = second compound 0.3 µM, first compound 1 µM
[29] = second compound 0.3 µM, first compound 3.16 µM
[30] = second compound 0.3 µM, first compound 10 µM

## COc1cc(C)[nH]c(=O)c1CN1CCc2c(Cl)cc(C(OC)C3COC3)c(Cl)c2C1=O (stereo not given) + CC[C@@]1(O)C(=O)OCc2c1cc1n(c2=O)Cc2cc3c(CN(C)C)c(O)ccc3nc2-1
Second compound 0.003 µM
  IC50: > 10 µM
Second compound 0.00949 µM
  IC50: > 10 µM
Second compound 0.03 µM
  IC50: > 10 µM
Second compound 0.0949 µM
  IC50: > 10 µM
Second compound 0.3 µM
  IC50: > 10 µM
[1]
  viability, T/C: 108%
[2]
  viability, T/C: 105%
[3]
  viability, T/C: 99.9%
[4]
  viability, T/C: 101%
[5]
  viability, T/C: 103%
[6]
  viability, T/C: 97.8%
[7]
  viability, T/C: 102%
[8]
  viability, T/C: 98.6%
[9]
  viability, T/C: 91.5%
[10]
  viability, T/C: 93.3%
[11]
  viability, T/C: 99.6%
[12]
  viability, T/C: 106%
[13]
  viability, T/C: 99.3%
[14]
  viability, T/C: 93.5%
[15]
  viability, T/C: 97.5%
[16]
  viability, T/C: 89.2%
[17]
  viability, T/C: 95.7%
[18]
  viability, T/C: 99.3%
[19]
  viability, T/C: 106%
[20]
  viability, T/C: 109%
[21]
  viability, T/C: 99.8%
[22]
  viability, T/C: 102%
[23]
  viability, T/C: 94.2%
[24]
  viability, T/C: 106%
[25]
  viability, T/C: 104%
[26]
  viability, T/C: 101%
[27]
  viability, T/C: 99.8%
[28]
  viability, T/C: 102%
[29]
  viability, T/C: 95.8%
[30]
  viability, T/C: 88.7%

## Cc1cc(C)c(CNC(=O)c2cc(-c3ccc(CN4CCOCC4)cc3)cc3c2cnn3C2CCCC2)c(=O)[nH]1 + CC[C@@]1(O)C(=O)OCc2c1cc1n(c2=O)Cc2cc3c(CN(C)C)c(O)ccc3nc2-1
Second compound 0.003 µM
  IC50: > 10 µM
Second compound 0.00949 µM
  IC50: > 10 µM
Second compound 0.03 µM
  IC50: > 10 µM
Second compound 0.0949 µM
  IC50: > 10 µM
Second compound 0.3 µM
  IC50: > 10 µM
[1]
  viability, T/C: 99.4%
[2]
  viability, T/C: 94.9%
[3]
  viability, T/C: 102%
[4]
  viability, T/C: 95.6%
[5]
  viability, T/C: 101%
[6]
  viability, T/C: 104%
[7]
  viability, T/C: 96.5%
[8]
  viability, T/C: 105%
[9]
  viability, T/C: 99.9%
[10]
  viability, T/C: 88.7%
[11]
  viability, T/C: 94.7%
[12]
  viability, T/C: 96.5%
[13]
  viability, T/C: 91.8%
[14]
  viability, T/C: 96.1%
[15]
  viability, T/C: 98.4%
[16]
  viability, T/C: 93%
[17]
  viability, T/C: 97.5%
[18]
  viability, T/C: 112%
[19]
  viability, T/C: 102%
[20]
  viability, T/C: 101%
[21]
  viability, T/C: 108%
[22]
  viability, T/C: 98.5%
[23]
  viability, T/C: 97%
[24]
  viability, T/C: 98.6%
[25]
  viability, T/C: 95.6%
[26]
  viability, T/C: 87.7%
[27]
  viability, T/C: 86.1%
[28]
  viability, T/C: 87.9%
[29]
  viability, T/C: 79.9%
[30]
  viability, T/C: 86.9%

## Cc1sc2c(c1C)C(c1ccc(Cl)cc1)=NC(CC(=O)Nc1ccc(O)cc1)c1nnc(C)n1-2 (stereo not given) + CC[C@@]1(O)C(=O)OCc2c1cc1n(c2=O)Cc2cc3c(CN(C)C)c(O)ccc3nc2-1
Second compound 0.003 µM
  IC50: 0.613 µM
Second compound 0.00949 µM
  IC50: 0.688 µM
Second compound 0.03 µM
  IC50: 0.656 µM
Second compound 0.0949 µM
  IC50: 0.755 µM
Second compound 0.3 µM
  IC50: 0.373 µM
Second compound 0.003 µM, first compound 0.00949 µM
  viability, T/C: 98.8%
Second compound 0.003 µM, first compound 0.03 µM
  viability, T/C: 101%
Second compound 0.003 µM, first compound 0.0949 µM
  viability, T/C: 86.2%
Second compound 0.003 µM, first compound 0.3 µM
  viability, T/C: 70.2%
Second compound 0.003 µM, first compound 0.949 µM
  viability, T/C: 37.8%
Second compound 0.003 µM, first compound 3 µM
  viability, T/C: 19.2%
Second compound 0.00949 µM, first compound 0.00949 µM
  viability, T/C: 98.7%
Second compound 0.00949 µM, first compound 0.03 µM
  viability, T/C: 96.1%
Second compound 0.00949 µM, first compound 0.0949 µM
  viability, T/C: 86.8%
Second compound 0.00949 µM, first compound 0.3 µM
  viability, T/C: 76.6%
Second compound 0.00949 µM, first compound 0.949 µM
  viability, T/C: 39.1%
Second compound 0.00949 µM, first compound 3 µM
  viability, T/C: 23.7%
Second compound 0.03 µM, first compound 0.00949 µM
  viability, T/C: 96.1%
Second compound 0.03 µM, first compound 0.03 µM
  viability, T/C: 84%
Second compound 0.03 µM, first compound 0.0949 µM
  viability, T/C: 80.3%
Second compound 0.03 µM, first compound 0.3 µM
  viability, T/C: 64.7%
Second compound 0.03 µM, first compound 0.949 µM
  viability, T/C: 41.8%
Second compound 0.03 µM, first compound 3 µM
  viability, T/C: 29.9%
Second compound 0.0949 µM, first compound 0.00949 µM
  viability, T/C: 98%
Second compound 0.0949 µM, first compound 0.03 µM
  viability, T/C: 93.6%
Second compound 0.0949 µM, first compound 0.0949 µM
  viability, T/C: 88.1%
Second compound 0.0949 µM, first compound 0.3 µM
  viability, T/C: 67.4%
Second compound 0.0949 µM, first compound 0.949 µM
  viability, T/C: 46%
Second compound 0.0949 µM, first compound 3 µM
  viability, T/C: 32.3%
Second compound 0.3 µM, first compound 0.00949 µM
  viability, T/C: 92.3%
Second compound 0.3 µM, first compound 0.03 µM
  viability, T/C: 92.8%
Second compound 0.3 µM, first compound 0.0949 µM
  viability, T/C: 78.9%
Second compound 0.3 µM, first compound 0.3 µM
  viability, T/C: 49.8%
Second compound 0.3 µM, first compound 0.949 µM
  viability, T/C: 40.1%
Second compound 0.3 µM, first compound 3 µM
  viability, T/C: 24.4%

## [2H]c1nc(C)nc([2H])c1-c1cc(NC[C@@H](C)c2cccc3c(C(=O)NC)ccnc23)ncn1 + CC[C@@]1(O)C(=O)OCc2c1cc1n(c2=O)Cc2cc3c(CN(C)C)c(O)ccc3nc2-1
Second compound 0.003 µM
  IC50: > 10 µM
Second compound 0.00949 µM
  IC50: > 10 µM
Second compound 0.03 µM
  IC50: > 10 µM
Second compound 0.0949 µM
  IC50: > 10 µM
Second compound 0.3 µM
  IC50: > 10 µM
[1]
  viability, T/C: 103%
[2]
  viability, T/C: 104%
[3]
  viability, T/C: 92.5%
[4]
  viability, T/C: 97.2%
[5]
  viability, T/C: 106%
[6]
  viability, T/C: 100%
[7]
  viability, T/C: 100%
[8]
  viability, T/C: 96.5%
[9]
  viability, T/C: 91.8%
[10]
  viability, T/C: 95.5%
[11]
  viability, T/C: 99.7%
[12]
  viability, T/C: 100%
[13]
  viability, T/C: 96.8%
[14]
  viability, T/C: 102%
[15]
  viability, T/C: 95.4%
[16]
  viability, T/C: 93.4%
[17]
  viability, T/C: 95.5%
[18]
  viability, T/C: 94.6%
[19]
  viability, T/C: 99.4%
[20]
  viability, T/C: 102%
[21]
  viability, T/C: 107%
[22]
  viability, T/C: 102%
[23]
  viability, T/C: 100%
[24]
  viability, T/C: 102%
[25]
  viability, T/C: 109%
[26]
  viability, T/C: 103%
[27]
  viability, T/C: 94.8%
[28]
  viability, T/C: 105%
[29]
  viability, T/C: 104%
[30]
  viability, T/C: 100%
